Some test systems named below: NCI/ADR-RES; A549; EKVX; SK-OV-3; SF-268; HCT-116; SW-620; KM12; A498; COLO 205; RPMI-8226; SK-MEL-5; OVCAR-3; CAKI-1; OVCAR-4; Malme-3M; SK-MEL-2; LOX IMVI; U-251; MCF7.
Holding throughout (assay): NCI tumour cell line growth inhibition, 48 h

Each structure is given as a SMILES string.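 Protocol summary: plate cells (96-well), add compound at 5 concentrations, incubate 48 h, interpolate endpoints linearly. GI50: concentration for 50% inhibition of growth.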 Calls of active or inactive are those of the source. Cut-off read from the data, not from the text of the source: active = GI50 up to about 1.1 µM and inactive = higher.

`Cc1ccc(NC(=O)c2cc3ccccc3c(/N=N/c3cc(S(=O)(=O)O)ccc3O)c2O)c(C)c1`: the GI50 in the test with NCI/ADR-RES is 25.6 µM (inactive); in the test on A549 it was 22.3 µM (inactive); in the test with EKVX, 19.6 µM (inactive); in the test with SK-OV-3 it was 20 µM (inactive); with SF-268, 18.6 µM (inactive); in the test on HCT-116, 29.9 µM (inactive). For the same molecule, the GI50 in the test with SW-620 was 10.9 µM (inactive); in the test on KM12, 16.1 µM (inactive); with A498, 42.3 µM (inactive); in the test on COLO 205, 36.8 µM (inactive); in the test on RPMI-8226, 15 µM (inactive); in the test on SK-MEL-5, 23.7 µM (inactive). Further, the GI50 in the test with OVCAR-3 is 3.26 µM (inactive); with CAKI-1, 32.5 µM (inactive); in the test on OVCAR-4, 12.7 µM (inactive); in the test with Malme-3M it was 16.4 µM (inactive); in the test on SK-MEL-2 it was 16 µM (inactive); in the test on LOX IMVI, 32.4 µM (inactive). For the same molecule, the GI50 in the test with U-251 was 4.33 µM (inactive).

With `S=P1(Oc2ccccc2)NNP2(=NP(N3CC3)(N3CC3)=NP(N3CC3)(N3CC3)=N2)NN1` (stereo not given), the GI50 in the test with A549 was > 100 µM (inactive); with EKVX, > 100 µM (inactive); in the test with SK-OV-3, > 100 µM (inactive); in the test with SF-268 it was 78.3 µM (inactive); in the test on HCT-116, > 100 µM (inactive); in the test with SW-620 it was > 100 µM (inactive). The GI50 in the test with KM12, with A498, with COLO 205, in the test with RPMI-8226, in the test on SK-MEL-5 and in the test on OVCAR-3 was > 100 µM (inactive) each time. For the same molecule, the GI50 with CAKI-1, in the test with OVCAR-4, with Malme-3M, in the test on SK-MEL-2, in the test on LOX IMVI and in the test on U-251 was > 100 µM (inactive) throughout.

As to `c1ccc(C2N=C(c3ccccn3)C(c3ccccn3)=NC2c2ccccc2)cc1` (stereo not given), the GI50 with A549, in the test with EKVX, with SK-OV-3, in the test with SF-268, in the test with HCT-116 and with SW-620 was > 100 µM (inactive) throughout. Also, the GI50 in the test with KM12, in the test on A498, in the test with COLO 205, in the test on RPMI-8226, with SK-MEL-5 and in the test with OVCAR-3 was > 100 µM (inactive) each time. Also, the GI50 in the test with CAKI-1, with OVCAR-4, in the test on Malme-3M, with SK-MEL-2, with LOX IMVI and in the test with U-251 was > 100 µM (inactive) each time.

With `CCOC(=O)C(C(=O)OCC)c1ccc([N+](=O)[O-])o1`, the GI50 in the test with A549 is 21.5 µM (inactive); in the test on EKVX, 18.7 µM (inactive); in the test with SK-OV-3, 62.2 µM (inactive); in the test on SF-268, 25.4 µM (inactive); in the test on HCT-116, 15.6 µM (inactive); in the test with SW-620 it was 3.39 µM (inactive). The GI50 with KM12 was 17.5 µM (inactive); with A498 it was > 10 µM (inactive); in the test on COLO 205, 3.27 µM (inactive); in the test with RPMI-8226 it was 6.87 µM (inactive); in the test with SK-MEL-5 it was 17.3 µM (inactive); with OVCAR-3, 5.73 µM (inactive). Besides, the GI50 in the test with CAKI-1 is 6.18 µM (inactive); with OVCAR-4, 17.3 µM (inactive); in the test on Malme-3M, 6.73 µM (inactive); in the test on SK-MEL-2 it was 18.6 µM (inactive); with LOX IMVI, 3.17 µM (inactive); in the test with U-251, 18.7 µM (inactive).

On to `COC(=O)/C(C#N)=C(\N)c1c(C)c2ccccc2oc1=N`, for which the GI50 in the test on A549, with EKVX, in the test with SK-OV-3, in the test on MCF7, with HCT-116 and with SW-620 was > 100 µM (inactive) throughout. The GI50 in the test with KM12, with A498, with COLO 205, in the test with RPMI-8226, with SK-MEL-5 and in the test with OVCAR-3 was > 100 µM (inactive) throughout. In addition, the GI50 in the test on CAKI-1 was > 10 µM (inactive); in the test on OVCAR-4, > 100 µM (inactive); in the test on SK-MEL-2, > 100 µM (inactive); with LOX IMVI, > 100 µM (inactive); in the test with U-251 it was > 100 µM (inactive).

`C#CCOCn1cnc2ncnc(Cl)c21`: the GI50 with A549, in the test with EKVX, with SK-OV-3, with SF-268, with HCT-116 and in the test on SW-620 was > 100 µM (inactive) throughout. The GI50 in the test with KM12, with A498, in the test on COLO 205, with RPMI-8226, in the test on SK-MEL-5 and with OVCAR-3 was > 100 µM (inactive) in each case. Besides, the GI50 in the test on CAKI-1, with OVCAR-4, in the test with Malme-3M, in the test on SK-MEL-2, with LOX IMVI and with U-251 was > 100 µM (inactive) each time.

Consider `COc1cc(C2c3cc4c(cc3[C@@H](Nc3ccc(F)cc3)C3COC[C@H]23)OCO4)cc(OC)c1O` (stereo not given in full), for which the GI50 is 6.92 µM (inactive) with NCI/ADR-RES; 0.451 µM (active) in the test with A549; 9.91 µM (inactive) in the test on EKVX; 4.98 µM (inactive) in the test on SK-OV-3; 3.85 µM (inactive) in the test with SF-268; 1.1 µM (active) in the test on MCF7. The GI50 with HCT-116 was 2.07 µM (inactive); in the test with SW-620 it was 3.15 µM (inactive); in the test on KM12 it was 4.66 µM (inactive); with COLO 205, 4.73 µM (inactive); in the test on RPMI-8226 it was 1.49 µM (inactive); in the test on SK-MEL-5 it was 3.43 µM (inactive). For the same molecule, the GI50 in the test on OVCAR-4 is 11.7 µM (inactive); with U-251, 0.811 µM (active).

On to `CC/C=C\C/C=C\C/C=C\CCCCCCCC(=O)OCC`, for which the GI50 in the test on A549, in the test with EKVX, in the test with SK-OV-3, with SF-268, in the test on HCT-116 and in the test with SW-620 was > 100 µM (inactive) throughout. Also, the GI50 in the test on KM12 is > 100 µM (inactive); in the test on A498, > 100 µM (inactive); in the test with COLO 205 it was > 100 µM (inactive); in the test with RPMI-8226 it was 70.6 µM (inactive); in the test on SK-MEL-5, > 100 µM (inactive); with OVCAR-3 it was > 100 µM (inactive). Also, the GI50 is > 100 µM (inactive) with CAKI-1; > 100 µM (inactive) in the test with OVCAR-4; > 100 µM (inactive) with Malme-3M; > 100 µM (inactive) in the test on SK-MEL-2; 42.6 µM (inactive) with LOX IMVI; > 100 µM (inactive) with U-251.

For `CN1C2CCC1CC(CCNC(c1ccccc1)c1ccccc1)C2` (stereo not given), the GI50 with NCI/ADR-RES was > 100 µM (inactive); in the test on A549, 71 µM (inactive); with EKVX, 24.9 µM (inactive); in the test with SK-OV-3 it was > 100 µM (inactive); with SF-268, 35.3 µM (inactive); with HCT-116 it was 18.3 µM (inactive). For the same molecule, the GI50 with SW-620 is 79.6 µM (inactive); in the test on KM12 it was 44 µM (inactive); in the test on A498 it was 23.8 µM (inactive); in the test on COLO 205 it was 11.5 µM (inactive); in the test with RPMI-8226, 20.2 µM (inactive); in the test with SK-MEL-5, 12.9 µM (inactive). Further, the GI50 is 47.4 µM (inactive) in the test with OVCAR-3; 59.7 µM (inactive) with CAKI-1; > 100 µM (inactive) with OVCAR-4; 17.3 µM (inactive) in the test with Malme-3M; 16.7 µM (inactive) in the test with SK-MEL-2; 20.2 µM (inactive) in the test on LOX IMVI. Also, in the test with U-251, the GI50 was 30.6 µM (inactive).

As for `CCc1cccc(CC)c1NC1=CC(=O)C(=O)c2ccccc21`, the GI50 in the test with A549 is 18.6 µM (inactive); with EKVX it was 14.1 µM (inactive); in the test on SK-OV-3, 31.6 µM (inactive); in the test with SF-268, 22.5 µM (inactive); in the test on HCT-116, 18.4 µM (inactive); in the test on SW-620, 16.5 µM (inactive). In addition, the GI50 with KM12 was 15.4 µM (inactive); in the test with A498, 22.3 µM (inactive); in the test with COLO 205 it was > 100 µM (inactive); in the test on RPMI-8226, 40.2 µM (inactive); in the test with SK-MEL-5, 10 µM (inactive); with OVCAR-3 it was 2.84 µM (inactive). Further, the GI50 was 18.9 µM (inactive) in the test with CAKI-1; 13.7 µM (inactive) with OVCAR-4; 17.9 µM (inactive) with Malme-3M; 14.6 µM (inactive) with SK-MEL-2; 9.84 µM (inactive) in the test on LOX IMVI; 15.3 µM (inactive) in the test with U-251.

In the case of `COc1cc2c3cc1Oc1c(O)c(OC)cc4c1C(Cc1ccc(O)c(c1)Oc1ccc(cc1)CC3N(C)CC2)N(C)CC4` (stereo not given), the GI50 in the test with A549 was 17.6 µM (inactive); in the test with EKVX, 21.9 µM (inactive); in the test with SK-OV-3, 23.3 µM (inactive); in the test on SF-268 it was 16.8 µM (inactive); in the test on HCT-116, 6.55 µM (inactive); with SW-620 it was 4.44 µM (inactive). In addition, the GI50 in the test on KM12 is 11.1 µM (inactive); in the test with A498, 18.2 µM (inactive); in the test on COLO 205 it was 19.5 µM (inactive); in the test on RPMI-8226 it was 15.1 µM (inactive); with SK-MEL-5 it was 18.5 µM (inactive); with OVCAR-3, 16.9 µM (inactive). Further, the GI50 with CAKI-1 is 17.3 µM (inactive); in the test with OVCAR-4, 13.8 µM (inactive); with Malme-3M, 18.2 µM (inactive); in the test on SK-MEL-2, 23.6 µM (inactive); in the test with LOX IMVI, 3.01 µM (inactive); in the test with U-251, 14.2 µM (inactive).

These data come from ChEMBL document CHEMBL1201862, “PubChem BioAssay data set” (2004).
